Measurements published in article PMC6058519, “Retro-inverso follicle-stimulating hormone peptide-mediated polyethylenimine complexes for targeted ovarian cancer gene therapy” (Drug Delivery, 2018).
Where no end group is shown, it is not given here.

Experiments:
[1] = molecular target: T1, Aminopeptidase M (leucine aminopeptidase, microsomal from porcine kidney) (Sus scrofa, UniProt P15145); test: In vitro stability of peptides against aminopeptidase M; format: in vitro ADME; conditions: aminopeptidase M 1 μg/mL, 37 °C, peptide 0.5 mg/mL, incubation up to 12 h, RP-HPLC C18, UV 214 nm, triplicate
T1 construct: purchased Sigma-Aldrich; host or cells: porcine kidney microsomes (tissue-derived)
T1 sequence (P15145 1-963): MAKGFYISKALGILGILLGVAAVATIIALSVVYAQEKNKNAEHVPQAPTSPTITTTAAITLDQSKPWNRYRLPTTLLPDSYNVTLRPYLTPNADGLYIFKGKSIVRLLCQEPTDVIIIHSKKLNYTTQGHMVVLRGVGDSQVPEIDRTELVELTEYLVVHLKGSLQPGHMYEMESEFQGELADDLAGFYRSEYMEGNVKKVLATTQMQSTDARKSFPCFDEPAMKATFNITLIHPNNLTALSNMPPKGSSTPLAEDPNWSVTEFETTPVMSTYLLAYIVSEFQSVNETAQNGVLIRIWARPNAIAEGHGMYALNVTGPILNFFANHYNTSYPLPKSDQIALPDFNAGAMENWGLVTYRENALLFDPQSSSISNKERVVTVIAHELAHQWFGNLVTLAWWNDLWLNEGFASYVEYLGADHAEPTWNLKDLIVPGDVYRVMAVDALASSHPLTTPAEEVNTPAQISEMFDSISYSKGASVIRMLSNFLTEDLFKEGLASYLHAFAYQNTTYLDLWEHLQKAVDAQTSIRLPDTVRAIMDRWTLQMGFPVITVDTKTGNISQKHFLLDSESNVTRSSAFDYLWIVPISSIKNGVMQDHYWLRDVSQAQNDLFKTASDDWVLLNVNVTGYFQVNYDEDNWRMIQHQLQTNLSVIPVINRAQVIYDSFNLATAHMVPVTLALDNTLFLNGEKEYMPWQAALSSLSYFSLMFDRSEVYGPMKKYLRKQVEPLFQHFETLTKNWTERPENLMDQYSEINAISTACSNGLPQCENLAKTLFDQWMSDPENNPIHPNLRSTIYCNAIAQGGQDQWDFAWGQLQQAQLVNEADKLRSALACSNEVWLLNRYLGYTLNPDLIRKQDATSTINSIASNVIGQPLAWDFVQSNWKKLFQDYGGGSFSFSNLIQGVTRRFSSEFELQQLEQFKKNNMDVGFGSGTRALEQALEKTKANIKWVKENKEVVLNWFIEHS
Description: L-FP21, D-FP21, Rhodamine-L-FP21, and Rhodamine-D-FP21 were purchased from ChinaPeptides (Shanghai, China) (Figure S3). Rat serum was obtained from Jianlun Biology Technology Co. (Guangzhou, China). Aminopeptidase M (leucine aminopeptidase, microsomal from porcine kidney Type VI − S, lyophilized powder, EC 3.4.11.2) and the Endotoxin-free Plasmid Maxiprep Kit used to purify the plasmid DNA before application were obtained from Sigma–Aldrich (USA). Cell Counting Kit-8 (CCK-8 Kit) was purchased from Beyotime Biotechnology (Tianjing, China). Odyssey Blocking Buffer was obtained from LI-COR Biosciences (Lincoln, Nebraska, USA). The plasmids encoding enhanced green fluorescence protein (EGFP; pEGFP-N) were purchased from KeyGEN BioTECH (Nanjing, China). The vector construction of GRO-α shRNA was pcDNA6.2-GW/Emgfp-miR (Invitrogen, Carlsbad, CA), and the target knockdown gene encoding was TGGTTTT GGCCACTG. […]
The L-FP21 and D-FP21 peptides were diluted to 0.5 mg/mL and incubated at 37 °C for 12 h for the biostability test against 20% rat serum. At predetermined time intervals, 100 μL of the sample was removed and analyzed using reverse-phase high-performance liquid chromatography (HPLC; Waters Acquity H-Class Bio, Waters Co. Ltd., Milford, MA) on a bridged ethylene hybrid (BEH) C18 column (2.1 mm ×50 mm, 1.7 μm) using a gradient method. […] The peptides were then analyzed as described above. […]

[2] = In vitro stability of peptides in 20% rat serum; format: in vitro ADME; conditions: 37 °C, peptide 0.5 mg/mL, incubation up to 12 h, RP-HPLC C18, UV 214 nm, triplicate
Procedure: The L-FP21 and D-FP21 peptides were diluted to 0.5 mg/mL and incubated at 37 °C for 12 h for the biostability test against 20% rat serum. At predetermined time intervals, 100 μL of the sample was removed and analyzed using reverse-phase high-performance liquid chromatography (HPLC; Waters Acquity H-Class Bio, Waters Co. Ltd., Milford, MA) on a bridged ethylene hybrid (BEH) C18 column (2.1 mm ×50 mm, 1.7 μm) using a gradient method. The mobile phase A was purified water containing 0.1% (v/v) formic acid (FA). The mobile phase B was acetonitrile containing 0.1% FA. The 30-min linear elution gradient ran from 5% B to 45% B in […] at a flow rate of 0.6 mL/min with a detection wavelength of 214 nm. We used aminopeptidase to further investigate the stability of L-FP21 or D-FP21 in proteolytic enzymes. The aminopeptidase was added with a final concentration of 1 μg/mL. The peptides were then analyzed as described above. All the experiments were performed in triplicate.

time to complete degradation in aminopeptidase [1]: ≤ 6 h | time to complete degradation in rat serum [2]: ≤ 2 h
Sequence: YTRDLVYGDPARPGIQGTGTF [L-FP21]
